How the values were obtained:
CRTH2 (DP2) = molecular target: T1, CRTH2 (DP2) (Homo sapiens, UniProt Q9Y5Y4); test: Radioligand binding Scintillation Proximity Assay ([3H]PGD2, hCRTH2-CHO cell membranes); details: 1.5 nM [3H]PGD2, hCRTH2-CHO cell membranes, SPA
T1 construct: host or cells: CHO cells
T1 sequence (Q9Y5Y4 1-395): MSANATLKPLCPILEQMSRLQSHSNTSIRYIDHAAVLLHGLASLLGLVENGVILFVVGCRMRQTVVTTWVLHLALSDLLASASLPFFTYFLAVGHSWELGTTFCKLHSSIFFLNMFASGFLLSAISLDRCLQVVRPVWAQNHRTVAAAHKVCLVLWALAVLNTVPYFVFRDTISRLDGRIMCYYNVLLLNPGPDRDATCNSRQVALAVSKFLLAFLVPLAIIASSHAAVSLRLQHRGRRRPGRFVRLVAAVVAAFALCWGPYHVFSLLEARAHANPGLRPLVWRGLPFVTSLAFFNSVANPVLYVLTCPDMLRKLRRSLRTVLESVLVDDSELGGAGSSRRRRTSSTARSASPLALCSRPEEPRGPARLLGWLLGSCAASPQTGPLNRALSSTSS
Procedure, shortened: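 Membranes from CHO cells stably expressing human CRTH2, made by nitrogen cavitation and differential centrifugation. Compounds competed with [3H]PGD2 at 1% DMSO for 90 min with agitation at room temperature. Non-specific binding taken with 10 μM PGD2.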

CRTH2 [1] = molecular target: T2, CRTH2 (Homo sapiens, UniProt Q9Y5Y4); test: Cellular Dielectric Spectroscopy in CHO-CRTH2 cells; format: cell-based; details: for EC50: agonist activity without PGD2, read-out: EC50(μM) (CDS, partial agonist); for Emax: agonist activity without PGD2, read-out: EMax (CDS, partial agonist); for IC50: fixed concentration of PGD2 (EC80), read-out: IC50(μM) (CDS, antagonist)
T2 construct: expressed in transfected cells; host or cells: CHO cells
T2 sequence (Q9Y5Y4 1-395): T1 sequence (Q9Y5Y4 1-395)
Procedure: Cellular Dielectric Spectroscopy (CDS) is a label-free technology based on the measurement of complex impedance changes (delta Z or dZ). Impedance (Z) is related to the ratio of voltage to current as described by Ohm's law (Z=V/I). In order to measure the changes in impedance that occur in response to receptor stimulation, mammalian cells are seeded onto a custom 96-well microtiter plate that contains electrodes at the bottom of each well Key contributors to the impedance measurements are changes in cell-substrate adherence, changes in cell shape and volume, and changes in cell-cell interactions. These factors individually or collectively affect the flow of current, influencing the magnitude and characteristics of the signal measured. G-protein coupled receptors ligand-induced activity can be measured using this technology and specific G protein coupling can be identified. Activities of reference agonist and antagonist molecules of CRTH2 have been measured using this assay and similar results were obtained compared to different functional assays.
CHO—CRTH2 cells are cultured in HAM's F12 (Lonza, Switzerland) supplemented with 10% foetal calf serum (PAA, Australia) and 400 μg/ml Geneticin. 100000 cells/well are seeded in standard 96 W Microplates (MDS Analytical Technologies) and incubated at 37° C. in 5% CO2 for 24 hours. Cells are washed twice with 135 μl of cell key buffer (Hank's Balanced Salt Solution 1× (HBSS) (Invitrogen) supplemented with 10 mM HEPES pH 7.4 in presence of 1% DMSO). […] Results are expressed as the amplitude between the highest and the lowest signal produced (max-min). Basal and maximum activities are measured, respectively in absence or presence of PGD2 (EC80).

CRTH2 [2] = molecular target: T2, CRTH2; test: [35S]GTPγS binding assay on CHO-CRTH2 cell membranes; format: biochemical; details: for Emax: without addition of PGD2, 100% of Emax being the activity measured by the addition of 1 μM of PGD2
Procedure: Adherent CHO cells expressing hCRTH2 (Euroscreen, Belgium) were cultured in 225 cm^2 cell culture flasks (Corning, USA) in 30 ml of medium. After two rinses of phosphate buffered saline (PBS), cells were harvested in 10 ml of PBS containing 1 mM EDTA, centrifuged at 500×g for 5 min at 4° C. and frozen at −80° C. The pellet was re-suspended in 50 mM Tris-HCl, pH 7.4, 2 mM EDTA, 250 mM Sucrose, containing protease inhibitor cocktail tablets, (Complete EDTA-free, Roche, Germany) and incubated 30 min at 4° C. Cells were disrupted by nitrogen cavitation (Parr Instruments, USA) at 4° C. (800 p.s.i. for 30 min), and centrifuged at 500×g for 10 min at 4° C. Pellet containing nuclei and cellular debris was discarded and supernatant was centrifuged 60 min at 4° C. at 45000×g. Membrane pellet was re-suspended in storage buffer (10 mM HEPES/KOH pH 7.4, 1 mM EDTA, 250 mM sucrose, protease inhibitor cocktail tablets) using Dounce homogenization and frozen in liquid nitrogen, and stored at 80° C.
The [^35S]GTPγS assay measures the increase in guanine nucleotide exchange at G-proteins in cell membranes, resulting from agonist (PGD2) binding to CRTH2. […] Briefly, Compounds of Formula (I) are incubated in 96-well scintillating white polystyrene plates (Perkin Elmer, USA) in a final volume of 200 μl containing 20 mM HEPES/KOH pH 7.4, 3 mM MgCl2, 10 μg/ml Saponin, 5 μM GDP, 75 mM NaCl and 2% of dimethylsulphoxide (DMSO). […] After 60 min incubation at 30° C., reaction is stopped by centrifugation at 700×g, at 4° C. for 10 minutes and supernatant is removed. […] For IC50 determination, increasing concentrations of compounds are incubated in presence of a fixed concentration of PGD2 (EC80). For EC50 measurements, compounds are incubated without addition of PGD2. Basal [^35S]GTPγS activity is determined without addition of any ligands or compounds. 100% [^35S]GTPγS activity is measured by the addition of 1 μM of PGD2.

[3] = In vivo pharmacokinetic evaluation in mouse; details: female, C57BL/6, mouse, plasma, mice
Procedure: In order to study the pharmacokinetic (PK) profile of test compounds in vivo, Sprague Dawley male rats or C57BL/6 female mice were dosed intravenously or after oral gavage. For both species, test compounds were dosed in solution at 1 mg/kg for i.v. route (10% ethanol, 10% N,N-dimethylacetamide, 30% propylene glycol, 50% water, v/v) and in suspension at 5 mg/kg (0.5% carboxymethylcellulose suspension, containing 0.25% Tween 20 in water) for oral gavage. PK profile in rat was obtained from 3 animals per dosing route and mouse PK profile was determined from 3 animals for each time points. The volume of administration was 2 mL/kg for i.v. dosing in both species and either 5 mL/kg (rat) or 10 mL/kg (mouse) for oral gavage. Blood samples (100 μL/time point) were collected at 0.083 (5 min), 0.25, 0.5, 1, 4, 7 and 24 hours post-dose for i.v. dosing, and at 0.5, 1, 4, 7 and 24 h for oral dosing, into heparin-Li+ containing tubes. For rats, all blood samples were collected trough a catheter in the carotid artery (placed in the artery the day before the experiment), under light isoflurane anesthesia, and stored on ice until centrifugation and plasma isolation. For mouse, blood samples were collected from intracardiac puncture at sacrifice at each time point and processed as described above for the rat. Plasma samples were stored frozen until analysis (−20° C. to −70° C.). For bioanalysis, samples were processed by protein precipitation (acetonitrile, formic acid 0.1%, addition of 3 volumes) after addition of one internal standard and analysed using a sensitive and selective LC/MS/MS method. An aliquot of the resulting supernatant was subject to LC/MS/MS analysis using a reverse phase column (Waters Xterra, C8, (3.5 μm particle size, 2.1×50 mm) and a short gradient (1 min) from (Solvent A) 85% water, 15% acetonitrile and 0.1% formic acid to (Solvent B) 90% acetonitrile, 10% water and 0.1% formic acid followed by isocratic conditions of Solvent B for 3.5 min at 0.4 mL/min. Column effluent was monitored using a Sciex API 4000 triple quadrupole mass spectrometer with a Turbo V electrospray ion source. Unknown concentrations of test compounds were determined using a calibration curve ranging from 1 to 3000 ng/mL.

Row | SMILES | melting point | IC50 (CRTH2 (DP2)) | Emax (CRTH2 [2]) | other results
1 | CCCCC(=O)N(Cc1ccc(OC)cc1)c1cc(F)cc(-c2nnn[nH]2)c1 [Example 38, N-[3-fluoro-5-(1H-tetrazol-5-yl)phenyl]-N-(4-methoxybenzyl)pentanamide] | 122 to 125 °C | 3.6 nM |  | 
2 | CCC(=O)N(Cc1ccc(S(C)(=O)=O)cc1)c1cc(F)cc(-c2nnn[nH]2)c1 [Example 78, N-[3-fluoro-5-(1H-tetrazol-5-yl)phenyl]-N-[4-(methylsulfonyl)benzyl]propanamide] |  | 3.5 nM | 19% | EC50 (CRTH2 [1]): 0.0011 µM; Emax (CRTH2 [1]): 42%; IC50 (CRTH2 [1]): 0.014 µM
3 | CCCCC(=O)N(Cc1ccc(OC(F)(F)F)c(Cl)c1)c1cc(F)cc(-c2nnn[nH]2)c1 [Example 54, N-[3-chloro-4-(trifluoromethoxy)benzyl]-N-[3-fluoro-5-(1H-tetrazol-5-yl)phenyl]pentanamide] | 137 °C | 15 nM | -12.6% | 
4 | COCCC(=O)N(Cc1ccc(OC(F)(F)F)cc1)c1cc(Cl)cc(-c2nnn[nH]2)c1 [Example 68, N-[3-chloro-5-(1H-tetrazol-5-yl)phenyl]-3-methoxy-N-[4-(trifluoromethoxy)benzyl]propanamide] | 146 to 151 °C | 7.4 nM |  | 
5 | CCC(=O)N(Cc1ccc(OC)cc1)c1cc(F)cc(-c2nnn[nH]2)c1 [Example 41, N-[3-fluoro-5-(1H-tetrazol-5-yl)phenyl]-N-(4-methoxybenzyl)propanamide] | 158 to 160 °C | 9 nM |  | 
6 | CC(C)CC(=O)N(Cc1ccc(S(C)(=O)=O)cc1)c1cc(F)cc(-c2nnn[nH]2)c1 [Example 104, N-[3-fluoro-5-(1H-tetrazol-5-yl)phenyl]-3-methyl-N-[4-(methylsulfonyl)benzyl]butanamide] |  | 3.7 nM |  | EC50 (CRTH2 [1]): 0.0011 µM; Emax (CRTH2 [1]): 27%
7 | C#Cc1cccc(CN(C(=O)CCCC)c2cc(-c3nnn[nH]3)ccc2F)c1 [Example 1, N-(3-ethynylbenzyl)-N-[2-fluoro-5-(1H-tetrazol-5-yl)phenyl]pentanamide] |  | 12 nM |  | clearance ([3]; iv, i.v. 1 mg/Kg): 1.67 mL/min/kg; AUC ([3]; oral gavage 5 mg/Kg): 12200 ng·h/mL; bioavailability ([3]; po 5 mg/Kg vs iv 1 mg/Kg): 33%; IC50 (CRTH2 [1]): 0.096 µM
8 | CS(=O)(=O)c1ccc(CN(C(=O)Cc2ccccc2)c2cc(F)cc(-c3nnn[nH]3)c2)cc1 [Example 109, N-[3-fluoro-5-(1H-tetrazol-5-yl)phenyl]-N-[4-(methylsulfonyl)benzyl]-2-phenylacetamide] |  | 1 nM |  | EC50 (CRTH2 [1]): 0.0012 µM; Emax (CRTH2 [1]): 32%
9 | CCCCC(=O)N(Cc1ccc(OC(F)(F)F)cc1)c1cc(Cl)cc(-c2nnn[nH]2)c1 [Example 40, N-[3-chloro-5-(1H-tetrazol-5-yl)phenyl]-N-[4-(trifluoromethoxy)benzyl]pentanamide] | 177 to 180 °C | 25 nM | -9.9% | 
10 | CS(=O)(=O)c1ccc(CN(C(=O)C2CCCC2)c2cc(F)cc(-c3nnn[nH]3)c2)cc1 [Example 105, N-[3-fluoro-5-(1H-tetrazol-5-yl)phenyl]-N-[4-(methylsulfonyl)benzyl]cyclopentanecarboxamide] |  | 6.2 nM |  | EC50 (CRTH2 [1]): 0.0024 µM; Emax (CRTH2 [1]): 22%
11 | CCC(=O)N(Cc1cccc(-c2ccccc2)c1)c1cccc(-c2nnn[nH]2)c1 [Example 59, N-(biphenyl-3-ylmethyl)-N-[3-(1H-tetrazol-5-yl)phenyl]propanamide] | 91 °C | 230 nM |  | 
12 | CCCCC(=O)N(Cc1cccc(OC)c1)c1cc(F)cc(-c2nnn[nH]2)c1 [Example 37, N-[3-fluoro-5-(1H-tetrazol-5-yl)phenyl]-N-(3-methoxybenzyl)pentanamide] | 118 to 120 °C | 3.6 nM |  | 
13 | CCCC(=O)N(Cc1ccc(OC(F)(F)F)cc1)c1cc(Cl)cc(-c2nnn[nH]2)c1 [Example 55, N-[3-chloro-5-(1H-tetrazol-5-yl)phenyl]-N-[4-(trifluoromethoxy)benzyl]butanamide] | 179 °C | 16 nM | -13.5% | 
14 | CS(=O)(=O)c1ccc(CN(C(=O)c2ccccc2)c2cc(F)cc(-c3nnn[nH]3)c2)cc1 [Example 108, N-[3-fluoro-5-(1H-tetrazol-5-yl)phenyl]-N-[4-(methylsulfonyl)benzyl]benzamide] |  | 2.6 nM | -10.1% | IC50 (CRTH2 [1]): 0.049 µM; IC50 (CRTH2 [2]; in presence of a fixed concentration of PGD2 (EC80), read-out: IC50 ([35S]GTPγS, antagonist)): 22.4 nM

Reference: patent publication US20120115869A1, “TETRAZOLE DERIVATIVES” (MERCK SERONO S.A., priority 2009, published 2012)
